Assay results from US11753407B2, “Compounds for treating spinal muscular atrophy” (PTC Therapeutics, Inc., priority 2012, dated 2023).

Test system: SMN2 minigene mRNA (SMN2-A minigene) in HEK293H cells
Experiment: SMN2 minigene mRNA splicing RT-qPCR assay in cultured cells
Format: cell-based, human
Conditions: for SMN2 minigene FL mRNA: HEK293H cells with SMN2 minigene, rising concentrations, 24 hr, relative to vehicle (FIG. 3); for EC (1.5-fold increase): Homo sapiens, HEK293-H, concentration increasing full length SMN2 mRNA 1.5-fold relative to vehicle-treated cells, HEK293H cells with SMN2-A minigene, 24 hours, 7-point concentration data, read-out: EC1.5x for production of full length SMN2 mRNA; for exon 7 inclusion: SMN2 minigene, relative to untreated cells (FIG. 3)
In short: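 EC1.5× values derive from a 24 h treatment of SMN2-A minigene HEK293H cells and GAPDH-normalized RT-qPCR of exon 7-included minigene mRNA relative to vehicle-treated cells.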

Row | SMILES | SMN2 minigene FL mRNA | EC (1.5-fold increase) | exon 7 inclusion
1 | COc1ccc(-c2cc(=O)n3cc(N4CCNCC4)ccc3n2)cc1OC [Cpd 6, 2-(3,4-dimethoxyphenyl)-7-(piperazin-1-yl)-4H-pyrido[1,2-a]pyrimidin-4-one] | increased SMN2 minigene FL mRNA at low concentrations | < 0.1 µM | fully restored exon 7 inclusion
2 | Cc1cn2nc(-c3cc(=O)n4cc(N5CCN(C)CC5)ccc4n3)cc2c(C)n1 [Cpd 170, 2-(4,6-dimethylpyrazolo[1,5-a]pyrazin-2-yl)-7-(4-methylpiperazin-1-yl)-4H-pyrido[1,2-a]pyrimidin-4-one] | increased SMN2 minigene FL mRNA at low concentrations | < 0.1 µM | fully restored exon 7 inclusion
